Target: T1, HDAC6 (Homo sapiens, UniProt Q9UBN7)
T1 construct: Full length human recombinant HDAC6 protein was expressed in baculoviral system; made in house; host or cells: baculoviral system
T1 sequence (Q9UBN7 1-1215): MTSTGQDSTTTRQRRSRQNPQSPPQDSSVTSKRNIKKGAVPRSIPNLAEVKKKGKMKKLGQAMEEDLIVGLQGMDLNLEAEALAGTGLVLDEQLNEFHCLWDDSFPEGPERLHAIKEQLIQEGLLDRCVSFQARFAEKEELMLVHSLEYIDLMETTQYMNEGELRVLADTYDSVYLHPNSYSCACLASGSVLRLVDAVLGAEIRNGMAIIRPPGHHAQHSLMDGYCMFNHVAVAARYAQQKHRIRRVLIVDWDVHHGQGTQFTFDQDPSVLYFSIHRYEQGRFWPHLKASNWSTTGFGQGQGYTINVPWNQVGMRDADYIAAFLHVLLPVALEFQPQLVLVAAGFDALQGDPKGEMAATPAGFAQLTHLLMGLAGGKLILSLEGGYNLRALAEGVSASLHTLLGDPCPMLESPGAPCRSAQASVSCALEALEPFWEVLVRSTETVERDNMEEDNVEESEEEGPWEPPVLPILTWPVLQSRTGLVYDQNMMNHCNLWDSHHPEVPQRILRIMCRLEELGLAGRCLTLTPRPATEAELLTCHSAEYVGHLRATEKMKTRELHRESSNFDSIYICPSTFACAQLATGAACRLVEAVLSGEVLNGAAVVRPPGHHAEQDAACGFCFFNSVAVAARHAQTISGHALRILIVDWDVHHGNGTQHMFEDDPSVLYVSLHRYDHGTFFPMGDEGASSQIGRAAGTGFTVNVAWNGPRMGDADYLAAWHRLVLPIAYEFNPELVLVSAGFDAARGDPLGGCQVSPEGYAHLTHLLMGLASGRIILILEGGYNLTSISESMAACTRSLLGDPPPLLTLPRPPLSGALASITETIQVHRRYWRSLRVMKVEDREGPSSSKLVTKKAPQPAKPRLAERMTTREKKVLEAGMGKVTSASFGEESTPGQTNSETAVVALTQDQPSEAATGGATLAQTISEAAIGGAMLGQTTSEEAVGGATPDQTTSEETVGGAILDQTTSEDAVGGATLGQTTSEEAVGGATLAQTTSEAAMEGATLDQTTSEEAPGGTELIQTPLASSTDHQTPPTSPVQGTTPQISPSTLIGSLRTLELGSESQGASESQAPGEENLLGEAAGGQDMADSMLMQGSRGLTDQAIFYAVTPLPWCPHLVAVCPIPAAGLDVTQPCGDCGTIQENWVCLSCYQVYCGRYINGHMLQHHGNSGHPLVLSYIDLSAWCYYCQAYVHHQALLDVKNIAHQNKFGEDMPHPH
Assay: In vitro Histone Deacetylase Assay (enzymatic HDAC6 electrophoretic mobility shift assay)
Format: biochemical
Settings: full length human recombinant HDAC6, 1 nM enzyme, 2 μM peptide substrate RHKK(Ac)-NH2, 25° C.; read-out: HDAC6 activity range
In short: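 Deacetylation was read by microfluidic mobility shift as product/(substrate+product) peak ratio and normalised to 0% and 100% inhibition controls. Reactions used 1 nM baculovirus-expressed full-length human HDAC6 and 2 μM labelled RHKK(Ac)-NH2 in pH 7.5 HEPES buffer with 1% DMSO at 25 °C. IC50 was from 4-parameter fits of 12 concentrations.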

| Structure (SMILES) | IC50 [nM] |
| --- | --- |
| CC(C)c1ccc(N2CC[C@@]3(CCc4cc(C(=O)NO)ccc4C3)C2=O)cn1 [Compound I-101, (S)-N-hydroxy-1′-(6-isopropylpyridin-3-yl)-2′-oxo-3,4-dihydro-1H-spiro[naphthalene-2,3′-pyrrolidine]-6-carboxamide] | ≤ 100 |
| O=C(NO)c1ccc2c(c1)CCC1(CCN(C(=O)Nc3ccccc3)CC1)O2 [II-7, N6-hydroxy-N1′-phenylspiro[chromane-2,4′-piperidine]-1′,6-dicarboxamide] | 100 to 500 |
| CC(C)N1CCCC2(CCc3cc(C(=O)NO)ccc3C2)C1=O (single isomer, unassigned) [Compound I-192] | ≤ 100 |
| O=C(NO)c1ccc2c(c1)CC[C@@]1(CCCN(C3CC3)C1=O)C2 (single isomer, unassigned) [Compound I-193] | ≤ 100 |
| O=C(NO)c1ccc2c(c1)CC[C@]1(CCN(c3ccncc3Cl)C1=O)C2 [Compound I-140, (R)-1′-(3-chloropyridin-4-yl)-N-hydroxy-2′-oxo-3,4-dihydro-1H-spiro[naphthalene-2,3′-pyrrolidine]-6-carboxamide] | ≤ 100 |
| O=C(NO)c1ccc2c(c1)CC[C@]1(CCN(C3CCC3)C1=O)C2 (single isomer, unassigned) [Compound I-171] | ≤ 100 |
| COc1ccc(N2CC[C@@]3(CCc4cc(C(=O)NO)ccc4C3)C2=O)cn1 [Compound I-118, (S)-N-hydroxy-1′-(6-methoxypyridin-3-yl)-2′-oxo-3,4-dihydro-1H-spiro[naphthalene-2,3′-pyrrolidine]-6-carboxamide] | ≤ 100 |
| CN1CC[C@]2(CCc3cc(C(=O)NO)ccc3C2)C1=O [Compound I-104, (R)-N-hydroxy-1′-methyl-2′-oxo-3,4-dihydro-1H-spiro[naphthalene-2,3′-pyrrolidine]-6-carboxamide] | ≤ 100 |
| COCCCN1CCCC2(CCc3cc(C(=O)NO)ccc3C2)C1=O (single isomer, unassigned) [Compound I-188] | ≤ 100 |
| COc1ncccc1N1CC[C@@]2(CCc3cc(C(=O)NO)ccc3C2)C1=O [Compound I-146, (S)-N-hydroxy-1′-(2-methoxypyridin-3-yl)-2′-oxo-3,4-dihydro-1H-spiro[naphthalene-2,3′-pyrrolidine]-6-carboxamide] | ≤ 100 |
| Cc1cncc(N2CC[C@]3(CCc4cc(C(=O)NO)ccc4C3)C2=O)c1 [Compound I-135, (R)-N-hydroxy-1′-(5-methylpyridin-3-yl)-2′-oxo-3,4-dihydro-1H-spiro[naphthalene-2,3′-pyrrolidine]-6-carboxamide] | ≤ 100 |
| O=C(NO)c1ccc2c(c1)CCC1(CCN(S(=O)(=O)C3CCCCC3)CC1)O2 [II-6, 1′-(cyclohexylsulfonyl)-N-hydroxyspiro[chromane-2,4′-piperidine]-6-carboxamide] | 100 to 500 |
| Cc1ccncc1N1CC[C@@]2(CCc3cc(C(=O)NO)ccc3C2)C1=O [Compound I-137, (S)-N-hydroxy-1′-(4-methylpyridin-3-yl)-2′-oxo-3,4-dihydro-1H-spiro[naphthalene-2,3′-pyrrolidine]-6-carboxamide] | ≤ 100 |

Second part, the compound after the results:

| IC50 [nM] | Structure (SMILES) |
| --- | --- |
| ≤ 100 | CCN1CC[C@@]2(CCc3cc(C(=O)NO)ccc3C2)C1=O [Compound I-162, (S)-1′-ethyl-N-hydroxy-2′-oxo-3,4-dihydro-H-spiro[naphthalene-2,3′-pyrrolidine]-6-carboxamide] |
| ≤ 100 | Cc1ccccc1CN1CC[C@]2(CCc3cc(C(=O)NO)ccc3C2)C1=O [Compound I-38, (R)-N-hydroxy-1′-(2-methylbenzyl)-2′-oxo-3,4-dihydro-1H-spiro[naphthalene-2,3′-pyrrolidine]-6-carboxamide] |
| ≤ 100 | O=C(NO)c1ccc2c(c1)CC[C@]1(CCN(Cc3cc(Cl)ccc3Cl)C1=O)C2 [Compound I-48, (R)-1′-(2,5-dichlorobenzyl)-N-hydroxy-2′-oxo-3,4-dihydro-1H-spiro[naphthalene-2,3′-pyrrolidine]-6-carboxamide] |
| ≤ 100 | O=C(NO)c1ccc2c(c1)CC[C@@]1(CCN(Cc3ccncc3)C1=O)C2 [Compound I-15, (S)-N-hydroxy-2′-oxo-1′-(pyridin-4-ylmethyl)-3,4-dihydro-1H-spiro[naphthalene-2,3′-pyrrolidine]-6-carboxamide] |
| 100 to 500 | CC(C)(C)c1ccc(CN2CC[C@@]3(CCc4cc(C(=O)NO)ccc4C3)C2=O)cc1 [Compound I-85, (S)-1′-(4-(tert-butyl)benzyl)-N-hydroxy-2′-oxo-3,4-dihydro-1H-spiro[naphthalene-2,3′-pyrrolidine]-6-carboxamide] |
| ≤ 100 | N#Cc1cccc(N2CC[C@@]3(CCc4cc(C(=O)NO)ccc4C3)C2=O)c1 [Compound I-116, (S)-1′-(3-cyanophenyl)-N-hydroxy-2′-oxo-3,4-dihydro-1H-spiro[naphthalene-2,3′-pyrrolidine]-6-carboxamide] |
| ≤ 100 | O=C(NO)c1ccc2c(c1)CCC1(CC(=O)N(Cc3ccccc3)C1)C2 (single isomer, unassigned) [Compound I-216] |
| ≤ 100 | O=C(NO)c1ccc2c(c1)CCC1(CC(=O)N(Cc3ccccc3)C1)C2 (single isomer, unassigned) [Compound I-218] |
| 100 to 500 | Cc1ccc(CN2CCC3(CCc4cc(C(=O)NO)ccc4C3)C2=O)cc1 (centres unmarked) [Compound I-8, N-hydroxy-1′-(4-methylbenzyl)-2′-oxo-3,4-dihydro-1H-spiro[naphthalene-2,3′-pyrrolidine]-6-carboxamide] |
| ≤ 100 | O=C(NO)c1ccc2c(c1)CC[C@@]1(CCN(c3cnc4ccccc4c3)C1=O)C2 [Compound I-102, (S)-N-hydroxy-2′-oxo-1′-(quinolin-3-yl)-3,4-dihydro-1H-spiro[naphthalene-2,3′-pyrrolidine]-6-carboxamide] |
| ≤ 100 | O=C(NO)c1ccc2c(c1)CC[C@@]1(CCN(c3ccncc3)C1=O)C2 [Compound I-17, (S)-N-hydroxy-2′-oxo-1′-(pyridin-4-yl)-3,4-dihydro-1H-spiro[naphthalene-2,3′-pyrrolidine]-6-carboxamide] |
| ≤ 100 | O=C(NO)c1ccc2c(c1)CCC1(CC(=O)N(CC(F)(F)F)C1)C2 (single isomer, unassigned) [Compound I-223] |
| ≤ 100 | O=C(NO)c1ccc2c(c1)CC[C@]1(CCN(Cc3c(Cl)cccc3Cl)C1=O)C2 [Compound I-49, (R)-1′-(2,6-dichlorobenzyl)-N-hydroxy-2′-oxo-3,4-dihydro-1H-spiro[naphthalene-2,3′-pyrrolidine]-6-carboxamide] |
| ≤ 100 | O=C(NO)c1ccc2c(c1)CC[C@]1(CC(=O)N(c3ccncc3)C1)C2 [Compound I-228, (R)-N-hydroxy-5′-oxo-1′-(pyridin-4-yl)-3,4-dihydro-1H-spiro[naphthalene-2,3′-pyrrolidine]-6-carboxamide] |
| 100 to 500 | O=C(NO)c1ccc2c(c1)CC[C@@]1(CCN(Cc3ccc(S(=O)(=O)C(F)(F)F)cc3)C1=O)C2 [Compound I-107, (S)-N-hydroxy-2′-oxo-1′-(4-((trifluoromethyl)sulfonyl)benzyl)-3,4-dihydro-1H-spiro[naphthalene-2,3′-pyrrolidine]-6-carboxamide] |
| ≤ 100 | O=C(NO)c1ccc2c(c1)CC[C@@]1(CCN(Cc3ccc(Cl)cc3)C1=O)C2 [Compound I-82, (S)-1′-(4-chlorobenzyl)-N-hydroxy-2′-oxo-3,4-dihydro-1H-spiro[naphthalene-2,3′-pyrrolidine]-6-carboxamide] |
